The results in this text go back to patent US9695119B2, “Methionine analogs and methods of using same” (Bioxiness Pharmaceuticals, Inc., priority 2008, dated 2017).

SMILES strings stand for the structures. Read-outs that look alike come from different tables or passages of the source.

The subject of one series is L929 cells. The conditions noted are these: mouse, 60 min. As to the method: Cytotoxicity is assessed by a colorimetric assay system (Sagripanti J-L, Bonifacino A. Cytotoxicity of Liquid Disinfectants. Surgical Infections, 2000; 1(1): 3-14, the content of which is hereby incorporated by reference, particularly with respect to the experimental methods described therein), using 3′-(phenylamino-carbonyl)-3,4-tetrazo-lium-bis(4-methoxy-6-nitro) benzene sulfonic acid hydrate (XTT), ProCheck™ cell viability assay (Evaluation of a soluble tetrazolium/formazan assay for cell growth and drug sensitivity in culture using human and other tumor cell lines described by Scudiero D A, Shoemaker R A H, Paul K D, Monks A, Tierney S, Nofziger T H, Currens M J, Seniff D, Boyd M R. Cancer Res. 1988 Sep. 1; 48(17):4827-33, the content of which is hereby incorporated by reference, particularly with respect to the experimental methods described therein). Similar approaches for determining the cell viability are used by other investigators. Three cell types are used: […] (L929), primary human skin fibroblast and primary human keratinocyte cells cultured in Dulbecco Modified Eagle's Medium and Keratinocyte defined medium with corresponding growth factors plus antibiotics. Cells are trypsinized and counted under the microscope and seeded at 1000-to-2000 cells per well of a flat-bottom 96-well plate. Cells are allowed to grow overnight at 37° C. Tissue culture media is removed the following day and cells are rinsed with fresh media 1× and then left in 50 μL of tissue culture media. Test articles are prepared as 2-fold dilutions and 200 μL is added into each set of 4-wells (total volume per well is 250 μL). Cells are exposed to test articles for 60 min at room temperature. Immediately after the exposed time, test article from each well is removed and cells are fed with 250 μL of fresh media. Plates are incubated at 37° C. for 18-20 hr. The following day media is removed again and replaced with 100 μL/well of fresh media containing 10/100 μL XTT-reagent. Cells are incubated under growth conditions (5% CO2 at 37° C. humidified incubator), protected from light, until color development is achieved. Absorbance is read at 450 nm with reference wavelength at 750 nm using Molecular Device ThermoMax Plate reader, blanking the plate on the medium-only assay blank wells. Untreated cells receiving XTT reagents-only serve as positive cell proliferation control.
(§1) Results are expressed as percentage of cells surviving the treatment as compared to PBS.

Series [1] concerns CV-1 (African Green Monkey Kidney Cells) cells. The conditions noted are these: 60 min, pH 7. As to the method:
Preliminary studies of cytotoxicity were performed in a mammalian cell viability assay.
CV-1 cells were propagated in DMEM plus 8% FBS according to supplier's recommendations. CV-1 cells were seeded at 1.5×10^4 cells per well in 96-well plates and incubated overnight at 37° C. On the day of testing, growth medium was aspirated from each well, and 20 μl fresh medium was added per well. Test articles were diluted from 50 mM to 0.05 mM by 2-fold serial dilution using PBS at pH 7.0 for each test article. After which 80 μl of each dilution was added to each well for a total volume of 100 μl per well. Following 60 minutes exposure at 37° C., test articles were aspirated and replaced with fresh 100 μl tissue culture media and incubated for 24 hours at 37° C. Next day cell culture media was removed and cell viability was determined by addition of WST-8 (Dojindo, Japan) reagent and the absorption at 450 nm read spectrophotometrically. Orange-red formazan, which is produced by live cells, is a direct measure of cell viability in this assay.
as §1

Another series deals with E. coli (DH5-α). The series is described as follows: Growth inhibition of E. coli by methionine analogs, 96-well plate, OD 550 nm over time. The series is classed as cell-based. The conditions noted are these: E. coli, 12.5 mM, OD 550 nm. The text has this: Comparative Minimum Bactericidal Concentration (MBC) results provide estimates of the susceptibility of various test articles against test organisms. A modification of the […] (NCCL) Standardized Protocol “Methods for dilution antimicrobial susceptibility tests for bacteria that grow aerobically” was used in these studies. Sterile Phosphate Buffer Saline (PBS) at pH 7.0 (vehicle) was used as the diluent. Use of such diluent allows for the determination of the intrinsic activity of our test articles in the absence of any interfering molecules. Specifically, each test article was diluted using 2-fold serial dilution in 96-well plate to give a range of concentrations from approximately 50 mM to 0.05 mM in a final volume of 0.1 mL. Each dilution was inoculated with 5×10^5 CFU/mL test bacteria. The initial optical density as absorbance of each well was read at OD 550 nm using ThermoMax plate reader. […] At various time intervals post-treatment, OD reading at 550 nm was recorded at various time intervals. FIG. 1A and Table 1 show time dependent growth inhibition capability of analogs on E. coli at 12.5 mM. For FIGS. 1A and 1B, the 96-well plate format was used to culture E. coli (DH5-α) cells in M9 minimal media supplemented with glucose (M9) or same media supplemented with a range of concentrations of various analogs. Experiments were carried out in duplicate.

The target in series [2] is E. coli Methionyl-tRNA synthetase (Escherichia coli, UniProt P00959). The series can be described thus: Enzymatic aminoacylation tRNA charging assay. The series is classed as biochemical. As to the method: The assay system is as described by Hartman M et al, 2006 Enzymatic aminoacylation of tRNA with unnatural amino acids. PNAS. […] Each assay contains 40 mM Hepes (pH 7.4), 17 mM MgCl2, 45 mM KCl, 3.4 mM 2-mercaptoethanol, 6 mM ATP, 6% glycerol, 350 μM E. coli tRNA (Roche), 0.09 mg/mL BSA, 910 nM Methionyl-tRNA synthetase (MetRS) and amino acids in 100-1,000 μM range. […] Samples are transferred to ice bath to stop the reactions and then small aliquot (2 μL) samples are precipitated using 500 μL of 5% cold TCA onto Whatmann filter papers and vacuumed and then dried under a heat lamp. Radioactivity of each sample is measured as counts per minute (CPM), as compared to controls (without the analog). Results for the S enantiomer of I-A ((S)-2-amino-4-(methylthio)butane-1-sulfonic acid hydrochloride) are shown below in Table 11.
Sequence of E. coli Methionyl-tRNA synthetase (P00959 whole entry): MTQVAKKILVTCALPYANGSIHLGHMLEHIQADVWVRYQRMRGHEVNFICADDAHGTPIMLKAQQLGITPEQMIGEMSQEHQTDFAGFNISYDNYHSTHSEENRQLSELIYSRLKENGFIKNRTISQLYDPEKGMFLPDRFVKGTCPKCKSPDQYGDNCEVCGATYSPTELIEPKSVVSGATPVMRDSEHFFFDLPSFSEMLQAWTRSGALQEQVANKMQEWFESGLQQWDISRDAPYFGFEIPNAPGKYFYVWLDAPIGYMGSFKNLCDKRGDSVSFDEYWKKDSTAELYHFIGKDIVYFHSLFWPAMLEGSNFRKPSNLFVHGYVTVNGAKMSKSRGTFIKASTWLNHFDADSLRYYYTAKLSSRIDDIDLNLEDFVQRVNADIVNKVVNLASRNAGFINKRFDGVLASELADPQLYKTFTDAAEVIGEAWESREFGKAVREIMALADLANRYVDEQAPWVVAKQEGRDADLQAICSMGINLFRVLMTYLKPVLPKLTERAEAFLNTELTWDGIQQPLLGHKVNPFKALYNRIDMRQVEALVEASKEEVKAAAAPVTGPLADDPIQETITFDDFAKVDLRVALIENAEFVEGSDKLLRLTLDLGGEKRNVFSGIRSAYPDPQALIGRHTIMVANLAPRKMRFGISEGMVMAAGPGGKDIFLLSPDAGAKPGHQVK

For the molecule `CSCC[C@H](N)C(=O)O` [Methionine], the “Percentage of Surviving L929 cells relative to control” value with L929 cells (0.1 mM) was 104%; in the series with L929 cells (0.2 mM), 101%; with L929 cells (0.39 mM), 100%; with L929 cells (0.78 mM) it was 95%; in the series on L929 cells (1.56 mM) it was 87%; in the series on L929 cells (3.13 mM), 86%. The “Percentage of Surviving L929 cells relative to control” value is reported as 84% in the series with L929 cells (6.25 mM), 85% in the series on L929 cells (12.5 mM), 85% in the series with L929 cells (25 mM) and 81% in the series with L929 cells (50 mM). Also, the “Percentage of Surviving CV-1 cells relative to PBS” value in series [1] (0.1 mM) was found to be 98%; in series [1] (0.2 mM) it was 96%; in series [1] (0.39 mM), 95%; in series [1] (0.78 mM) it was 96%; in series [1] (1.56 mM) it was 99%; in series [1] (3.13 mM) it was 100%. Also, the “Percentage of Surviving CV-1 cells relative to PBS” value in series [1] (6.25 mM) was 100%; in series [1] (12.5 mM) it was 99%; in series [1] (25 mM), 99%; in series [1] (50 mM), 66%. The Absorbance stood at 0.085 with E. coli (DH5-α) (well 12, time 0 hrs); 0.123 in the series on E. coli (DH5-α) (well 12, time 1 hrs); 0.164 in the series on E. coli (DH5-α) (well 12, time 2 hrs); 0.168 in the series with E. coli (DH5-α) (well 12, time 3 hrs); 0.151 in the series with E. coli (DH5-α) (well 12, time 3.75 hrs); 0.191 in the series with E. coli (DH5-α) (well 12, time 5 hrs). In addition, the Absorbance was determined as 0.202 in the series on E. coli (DH5-α) (well 12, time 6.5 hrs); 0.202 with E. coli (DH5-α) (well 12, time 7.25 hrs); 0.427 with E. coli (DH5-α) (well 12, time 23 hrs).
`CSCC[C@H](N)C(=O)NO.Cl` [I-AA, (S)-2-amino-N-hydroxy-4-(methylthio)butanamide hydrochloride]: the “Percentage of Surviving L929 cells relative to control” value came out at 100% with L929 cells (0.1 mM); 94% in the series with L929 cells (0.2 mM); 89% in the series on L929 cells (0.39 mM); 87% with L929 cells (0.78 mM); 87% in the series on L929 cells (1.56 mM); 87% in the series on L929 cells (3.13 mM). Besides, the “Percentage of Surviving L929 cells relative to control” value with L929 cells (6.25 mM) is listed as 85%; in the series on L929 cells (12.5 mM) it was 86%; in the series on L929 cells (25 mM), 85%; in the series on L929 cells (50 mM) it was 82%. The “Percentage of Surviving CV-1 cells relative to PBS” value in series [1] (0.1 mM) was 97%; in series [1] (0.2 mM), 95%; in series [1] (0.39 mM) it was 96%; in series [1] (0.78 mM), 96%; in series [1] (1.56 mM), 100%; in series [1] (3.13 mM), 100%. Also, the “Percentage of Surviving CV-1 cells relative to PBS” value in series [1] (6.25 mM) was 99%; in series [1] (12.5 mM) it was 101%; in series [1] (25 mM), 99%; in series [1] (50 mM), 72%. For the same molecule, the Absorbance is on record as 0.084 in the series with E. coli (DH5-α) (well 12, time 0 hrs); 0.113 with E. coli (DH5-α) (well 12, time 1 hrs); 0.130 in the series with E. coli (DH5-α) (well 12, time 2 hrs); 0.133 in the series with E. coli (DH5-α) (well 12, time 3 hrs); 0.109 in the series on E. coli (DH5-α) (well 12, time 3.75 hrs); 0.118 in the series on E. coli (DH5-α) (well 12, time 5 hrs). The Absorbance is 0.110 in the series with E. coli (DH5-α) (well 12, time 6.5 hrs); 0.100 in the series with E. coli (DH5-α) (well 12, time 7.25 hrs); 0.130 with E. coli (DH5-α) (well 12, time 23 hrs).
For the molecule `CSCC[C@H](N)CS(=O)(=O)O.Cl` [I-A, (S)-2-amino-4-(methylthio)butane-1-sulfonic acid hydrochloride], the “Radioactivity, Methionyl-tRNA synthetase tRNA charging” value in series [2] (Experiment #1, I-A 0.04 mM, 1 Minute) is 2,476 Counts Per Minute; in series [2] (Experiment #1, I-A 0.04 mM, 10 Minutes) it was 3,466 Counts Per Minute; in series [2] (Experiment #1, I-A 0.20 mM, 1 Minute), 2,333 Counts Per Minute; in series [2] (Experiment #1, I-A 0.20 mM, 10 Minutes), 3,147 Counts Per Minute; in series [2] (Experiment #1, I-A 1.00 mM, 1 Minute), 2,372 Counts Per Minute; in series [2] (Experiment #1, I-A 1.00 mM, 10 Minutes) it was 3,218 Counts Per Minute. Further, the “Radioactivity, Methionyl-tRNA synthetase tRNA charging” value in series [2] (Experiment #1, I-A 5.00 mM, 1 Minute) was 2,007 Counts Per Minute; in series [2] (Experiment #1, I-A 5.00 mM, 10 Minutes), 2,891 Counts Per Minute; in series [2] (Experiment #2, I-A 0.25 mM, 10 Minutes) it was 1,701 Counts Per Minute; in series [2] (Experiment #2, I-A 1.25 mM, 10 Minutes), 1,907 Counts Per Minute; in series [2] (Experiment #2, I-A 5.00 mM, 10 Minutes) it was 1,575 Counts Per Minute; in series [2] (Experiment #2, I-A 12.5 mM, 10 Minutes), 1,672 Counts Per Minute.
